Molecular target: T1, neutrophil elastase (Homo sapiens, UniProt P08246)
T1 sequence (P08246 30-247 limits assumed): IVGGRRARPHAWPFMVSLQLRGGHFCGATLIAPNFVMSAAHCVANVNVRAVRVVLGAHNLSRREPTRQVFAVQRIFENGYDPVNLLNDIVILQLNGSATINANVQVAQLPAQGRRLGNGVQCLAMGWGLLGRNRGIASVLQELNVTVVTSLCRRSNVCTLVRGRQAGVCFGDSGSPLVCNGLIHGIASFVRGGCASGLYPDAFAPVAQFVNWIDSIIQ
Assay: Human Neutrophil Elastase Assay
Assay type: biochemical
Design: purchased Calbiochem 324681
Settings: substrate MeOSuc-Ala-Ala-Pro-Val-AMC, pH 7.5, room temperature
How it was run: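 Readout: AMC fluorescence (ex 380, em 460 nm) after 60 min room-temperature reaction with 250 nM MeOSuc-AAPV-AMC, following 15 min compound–enzyme preincubation. Buffer: Tris/NaCl pH 7.5, 0.01% BSA.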

First: Cc1cc(C#N)ccc1C1C2=C(CCCC2=O)N(c2cccc(C(F)(F)F)c2)C(=O)N1C (stereo not drawn) [Example 63, 3-Methyl-4-(3-methyl-2,5-dioxo-1-(3-(trifluoromethyl)phenyl)-1,2,3,4,5,6,7,8-octahydroquinazolin-4-yl)benzonitrile]
Second: Cc1cc(C#N)ccc1C1C2=C(CCCC2=O)N(c2cccc(C(F)(F)F)c2)C(=O)N1S(C)(=O)=O (stereo not drawn) [Example 66, 3-Methyl-4-(3-(methylsulfonyl)-2,5-dioxo-1-(3-(trifluoromethyl)phenyl)-1,2,3,4,5,6,7,8-octahydroquinazolin-4-yl)benzonitrile]
The IC50 of the first is 4-fold higher: 7.9 nM for the first, 2 nM for the second.

Going from `N#Cc1ccc(C2NC(=O)N(c3ccnc(C(F)(F)F)c3)C3=C2C(=O)CCC3)cc1` (stereo not drawn) [Example 14, 4-(2,5-Dioxo-1-(2-(trifluoromethyl)pyridin-4-yl)-1,2,3,4,5,6,7,8-octahydroquinazolin-4-yl)benzonitrile] to `N#Cc1ccc(C2NC(=O)N(c3cc(C(F)(F)F)ccn3)C3=C2C(=O)CCC3)cc1` (stereo not drawn) [Example 13, 4-(2,5-Dioxo-1-(4-(trifluoromethyl)pyridin-2-yl)-1,2,3,4,5,6,7,8-octahydroquinazolin-4-yl)benzonitrile], the IC50 rises from 70.3 nM to 110 nM (1.6-fold).

`N#Cc1ccc(C2NC(=O)N(c3cccc(C(F)(F)F)c3)C3=C2C(=O)CC(C(=O)O)C3)cc1` (stereo not drawn) [Example 10, 4-(4-Cyanophenyl)-2,5-dioxo-1-(3-(trifluoromethyl)phenyl)-1,2,3,4,5,6,7,8-octahydroquinazoline-7-carboxylic acid] and `N#Cc1ccc(C2NC(=O)N(c3cccc(C(F)(F)F)c3)C3=C2C(=O)CC(C(F)(F)F)C3)cc1` (stereo not drawn) [Example 5, 4-(2,5-Dioxo-7-(trifluoromethyl)-1-(3-(trifluoromethyl)phenyl)-1,2,3,4,5,6,7,8-octahydroquinazolin-4-yl)benzonitrile] are within 1.5-fold of each other in IC50: 48.5 nM for the first, 65.8 nM for the second.

Going from `CN(CCN1CCCC1=O)C(=O)CN1C(=O)N(c2cccc(C(F)(F)F)c2)C2=C(C(=O)CCC2)C1c1ccc(C#N)cc1` (stereo not drawn) [Example 36.67] to `CN(CCN1CCOCC1)C(=O)CN1C(=O)N(c2cccc(C(F)(F)F)c2)C2=C(C(=O)CCC2)C1c1ccc(C#N)cc1` (stereo not drawn) [Example 36.68], the IC50 rises from 4.2 nM to 8.7 nM (2.1-fold).

Compared with `COCCN(C)C(=O)CN1C(=O)N(c2cccc(C(F)(F)F)c2)C2=C(C(=O)CCC2)C1c1ccc(C#N)cc1` (stereo not drawn) [Example 36.12], `CN(Cc1cnn(C)c1)C(=O)CN1C(=O)N(c2cccc(C(F)(F)F)c2)C2=C(C(=O)CCC2)C1c1ccc(C#N)cc1` (stereo not drawn) [Example 36.54] is 2.3-fold lower in IC50: 6.6 nM for the first, 2.9 nM for the second. The second is the more potent here.

`CC(C)(O)CNC(=O)N1C(=O)N(c2cccc(C(F)(F)F)c2)C2=C(C(=O)CCC2)[C@H]1c1ccc(C#N)cc1S(C)(=O)=O` [Example 75.12] and `CS(=O)(=O)c1cc(C#N)ccc1[C@@H]1C2=C(CCCC2=O)N(c2cccc(C(F)(F)F)c2)C(=O)N1C(=O)NC1CC1` [Example 75.2] cannot be ordered by IC50: under 1 nM for the first, under 1 nM for the second.

Compared with `CS(=O)(=O)CCN1C(=O)N(c2cccc(C(F)(F)F)c2)C2=C(C(=O)CCC2)C1c1ccc(C#N)cc1` (stereo not drawn) [Example 30, 4-(3-(2-(Methylsulfonyl)ethyl)-2,5-dioxo-1-(3-(trifluoromethyl)phenyl)-1,2,3,4,5,6,7,8-octahydroquinazolin-4-yl)benzonitrile], `CCCCN1C(=O)N(c2cccc(C(F)(F)F)c2)C2=C(C(=O)CCC2)C1c1ccc(C#N)cc1` (stereo not drawn) [Example 21, 4-(3-Butyl-1-(3-(trifluoromethyl)phenyl)-2,5-dioxo-1,2,3,4,5,6,7,8-octahydroquinazolin-4-yl)benzonitrile] is 4.8-fold higher in IC50: 4 nM for the first, 19.4 nM for the second. The first is the more potent here.

`N#Cc1ccc(C2C3=C(CCCC3=O)N(c3cccc(C(F)(F)F)c3)C(=O)N2CC(=O)NC2CCOC2)cc1` (stereo not drawn) [Example 36.9] and `N#Cc1ccc(C2C3=C(CCCC3=O)N(c3cccc(C(F)(F)F)c3)C(=O)N2CC2CCOCC2)cc1` (stereo not drawn) [Example 26] are within 1.5-fold of each other in IC50: 10.6 nM for the first, 11.8 nM for the second.

Compared with `N#Cc1ccc(C2NC(=O)N(c3cccc(C(F)(F)F)c3)C3=C2C(=O)CCC3)nc1` (stereo not drawn) [Example 15, 6-(2,5-Dioxo-1-(3-(trifluoromethyl)phenyl)-1,2,3,4,5,6,7,8-octahydroquinazolin-4-yl)-nicotinonitrile], `N#Cc1ccc(C2NC(=O)N(c3cccc(C(F)(F)F)c3)C3=C2C(=O)CCC3)c(Cl)c1` (stereo not drawn) [Example 56, 3-Chloro-4-(2,5-dioxo-1-(3-(trifluoromethyl)phenyl)-1,2,3,4,5,6,7,8-octahydroquinazolin-4-yl)benzonitrile] is 1.5-fold lower in IC50: 52.1 nM for the first, 34 nM for the second.

`N#Cc1ccc(C2NC(=O)N(c3cc(F)cc(C(F)(F)F)c3)C3=C2C(=O)CCC3)cc1` (stereo not drawn) [Example 52.2] and `Cn1cc(CN2C(=O)N(c3cccc(C(F)(F)F)c3)C3=C(C(=O)CCC3)C2c2ccc(C#N)cc2)cn1` (stereo not drawn) [Example 24.2] are within 1.5-fold of each other in IC50: 13.8 nM for the first, 9.8 nM for the second.

Compared with `N#Cc1ccc(C2C3=C(CCCC3=O)N(c3cccc(C(F)(F)F)c3)C(=O)N2CC(=O)NCCn2cccn2)cc1` (stereo not drawn) [Example 36.32], `Cn1cc(CNC(=O)CN2C(=O)N(c3cccc(C(F)(F)F)c3)C3=C(C(=O)CCC3)C2c2ccc(C#N)cc2)cn1` (stereo not drawn) [Example 36.31] is 1.8-fold lower in IC50: 14 nM for the first, 7.8 nM for the second. The second is the more potent here.

First: N#Cc1ccc(C2C3=C(CCCC3=O)N(c3cccc(C(F)(F)F)c3)C(=O)N2CC(=O)N2CC(=O)N3CCCCC3C2)cc1 (stereo not drawn) [Example 36.73]
Second: N#Cc1ccc(C2C3=C(CCCC3=O)N(c3cccc(C(F)(F)F)c3)C(=O)N2CC(=O)N2CC[S+]([O-])CC2)cc1 (stereo not drawn) [Example 36.45]
The IC50 of the first is 17-fold higher: 35.5 nM for the first, 2.1 nM for the second.

`COC1CCN(C(=O)N2C(=O)N(c3cccc(C(F)(F)F)c3)C3=C(C(=O)CCC3)C2c2ccc(C#N)cc2)C1` (stereo not drawn) [Example 39.10] and `N#Cc1ccc(C2C3=C(CCCC3=O)N(c3cccc(C(F)(F)F)c3)C(=O)N2C(=O)N2CCOCC2)cc1` (stereo not drawn) [Example 39.7] are within 1.5-fold of each other in IC50: 54.8 nM for the first, 63.3 nM for the second.

`CS(=O)(=O)c1ccc(CNC(=O)N2C(=O)N(c3cccc(C(F)(F)F)c3)C3=C(C(=O)CCC3)C2c2ccc(C#N)cc2)cc1` (stereo not drawn) [Example 37, 4-(4-Cyanophenyl)-N-(4-(methylsulfonyl)benzyl)-2,5-dioxo-1-(3-(trifluoromethyl)-phenyl)-1,2,5,6,7,8-hexahydroquinazoline-3(4H)-carboxamide] and `N#Cc1ccc(C2C3=C(CCCC3=O)N(c3cccc(C(F)(F)F)c3)C(=O)N2C(=O)NCCCO)cc1` (stereo not drawn) [Example 39.6] cannot be ordered by IC50: under 1 nM for the first, under 1 nM for the second.

Going from `CCCS(=O)(=O)N1C(=O)N(c2cccc(C(F)(F)F)c2)C2=C(C(=O)CCC2)C1c1ccc(C#N)cc1` (stereo not drawn) [Example 44.2] to `CC(=O)NCCNC(=O)CN1C(=O)N(c2cccc(C(F)(F)F)c2)C2=C(C(=O)CCC2)C1c1ccc(C#N)cc1` (stereo not drawn) [Example 36.26], the IC50 rises from 3 nM to 17.8 nM (5.9-fold). The first is the more potent here.

Compared with `CN1C(=O)N(c2cccc(C(F)F)c2)C2=C(C(=O)CCC2)C1c1ccc(C#N)cc1S(C)(=O)=O` (stereo not drawn) [Example 49, 4-(1-(3-(Difluoromethyl)phenyl)-3-methyl-2,5-dioxo-1,2,3,4,5,6,7,8-octahydroquinazolin-4-yl)-3-(methylsulfonyl)benzonitrile], `N#Cc1ccc(C2C3=C(CCCC3=O)N(c3cccc(C(F)(F)F)c3)C(=O)N2CC(=O)N2CCC3(CC2)CC3)cc1` (stereo not drawn) [Example 36.34] is 8.2-fold higher in IC50: 1.3 nM for the first, 10.7 nM for the second. The first is the more potent here.

In the case of `N#Cc1ccc(C2NC(=O)N(c3cccc(C(F)(F)F)c3)C3=C2C(=O)CC(c2ccc(C(F)(F)F)cc2)C3)cc1` (stereo not drawn) [Example 7, 4-(2,5-Dioxo-1-(3-(trifluoromethyl)phenyl)-7-(4-(trifluoromethyl)phenyl)-1,2,3,4,5,6,7,8-octahydroquinazolin-4-yl)benzonitrile], the IC50 is reported as 212 nM.

Reference: patent US9115093B2, “Substituted bicyclic dihydropyrimidinones and their use as inhibitors of neutrophil elastase activity” (Boehringer Ingelheim International GmbH, priority 2013, dated 2015)
